Laboratory results from patent US20150065436A1, “INHIBITING INTERACTION BETWEEN HIF-1ALPHA AND p300/CBP WITH HYDROGEN BOND SURROGATE-BASED HELICES” (UNIVERSITY OF SOUTHERN CALIFORNIA, priority 2013, published 2015).

Molecular target: T1, p300-CH1 (Homo sapiens, UniProt Q09472)
T1 construct: human p300 CH1 domain (amino acid residues 323-423); GST (cleaved yes); made in house; host or cells: E. coli BL21 (DE3)
Assay: Tryptophan fluorescence binding assay
Settings: for Kd: 15N-labeled p300 CH1 domain, Trp403 fluorescence, read-out: dissociation constant, Kd
Source text: The DNA sequence of human p300 CH1 domain ([…]) was designed as an insert and subcloned into a pUC57 plasmid by Genscript, Inc. After transformation of the plasmid in JM109 bacteria (Promega), the gene sequence was subcloned into BamHI and EcoRI restriction sites of pGEX-4T-2 expression vector (Amersham). The pGEX 4T-2-p300 fusion vector was transformed into BL21 (DE3)-competent E. coli (Novagen) in M9 minimal media with ^15NH4Cl as the main nitrogen source. Protein production was induced with 1 mM IPTG at O.D. 600 of 1 for 16 hours at 15° C. Production of the desired p300-CH1-GST fusion product was verified by SDS-PAGE. Bacteria were harvested and resuspended in the lysis buffer with 20 mM Phosphate buffer (Research Products International, Corp.), 100 μM DTT (Fisher), 100 μM ZnSO4 (Sigma), 0.5% TritonX 100 (Sigma), […] Pepstatin A (Research Products International, Corp.), […] Leupeptin A (Research Products International, Corp.), 500 μM PMSF (Sigma), and 0.5% glycerol at pH 8.0. Pellets were lysed by sonication and centrifuged at 4° C., 20,000 rpm, for 20 minutes. Fusion protein was collected from the bacterial supernatant and purified by affinity chromatography using glutathione Sepharose 4B beads (Amersham) prepared according to the manufacturer's directions. GST-tag was cleaved by thrombin and protein was eluted from resin. […] Spectra were recorded on a QuantaMaster 40 spectrofluorometer (Photon Technology International) in a 10 mm quartz fluorometer cell at 25° C. with 4 nm excitation and 4 nm emission slit widths from 200 to 400 nm at intervals of 1 nm/s. Samples were excited at 295 nm and fluorescence emission was measured from 200-400 nm and recorded at 335 nm. Peptide stock solutions were prepared in DMSO. Aliquots containing 1 μL DMSO stocks were added to 400 μL of 1 μM p300-CH1 in 50 mM Tris and 100 mM NaCl (pH 8.0). After each addition, the sample was allowed to equilibrate for 5 minutes before UV analysis. Background absorbance and sample dilution effects were corrected by titrating DMSO into p300-CH1 in an analogous manner. Final fluorescence is reported as the absolute value of [(F1-F0)/F1]*100, where F1 is the final fluorescence upon titration and F0 is the fluorescence of the blank DMSO titration. EC50 values for each peptide were determined by fitting the experimental data to a sigmoidal dose-response nonlinear regression model on GraphPad Prism 5.0, and the dissociation constants, KD, were obtained from equation (1) […] The affinity of peptides for the ^15N-labeled p300 CH1 domain was evaluated using tryptophan fluorescence spectroscopy. […] The binding affinity of HIF-1αC-TAD to CH1 in this assay is consistent with that obtained from a fluorescence polarization assay using fluorescein-labeled HIF-1αC-TAD (FIG. 11 and FIG. 12) and those using isothermal titration microcalorimetry.

T1 sequence (Q09472 323-423): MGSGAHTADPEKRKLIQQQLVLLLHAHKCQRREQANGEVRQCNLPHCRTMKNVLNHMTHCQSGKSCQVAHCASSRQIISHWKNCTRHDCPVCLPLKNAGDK

CC(C)C[C@H](NC(=O)[C@H](C)NC(=O)[C@H](CCCNC(=N)N)NC(=O)[C@H](C)N1CC=CCCC(=O)N[C@@H](CCC(=O)O)C(=O)N[C@@H](CC(C)C)C1=O)C(=O)N[C@@H](CC(=O)O)C(=O)N[C@@H](CCC(N)=O)C(N)=O [HBS 1, XELA*RALDQ-NH2]
Kd: 690 ± 25 nM | increase in binding affinity by stabilization of the peptide conformation (HBS 1 versus unconstrained peptide 3): 9 fold

CC(C)C[C@@H]1NC(=O)[C@H](CCC(=O)O)NC(=O)CCC=CCN([C@@H](C)C(=O)N[C@@H](CCCNC(=N)N)C(=O)N[C@@H](C)C(=O)N[C@@H](C)C(=O)N[C@@H](CC(=O)O)C(=O)N[C@@H](CCC(N)=O)C(N)=O)C1=O [HBS 2, XELA*RAADQ-NH2]
Kd: 2820 ± 140 nM | binding affinity relative to HBS 1 (CH1 domain, compared with HBS 1): four-fold weaker
